Measurements published in patent US9133207B2, “Tetrandrine derivatives with substituted 5-carbon, preparation method and use thereof” (Hangzhou Bensheng Pharmaceutical Co., Ltd., priority 2011, dated 2015).
≈ marks a conversion by molar mass, not a printed value.

Columns and labels:
A549 (human lung cancer) = test: Solid tumor cell growth inhibition, MTT, 72 h (Example 7); format: cell-based; conditions: 72 h, MTT, A549; for IC50 / IC90: Homo sapiens
Protocol: (§1) Human solid tumor cell lines: Hep-2 (laryngeal carcinoma), A549 (human lung cancer), CaES-17 (esophageal cancer cell), PC-3 (prostate cancer), CNE (nasopharyngeal carcinoma cell) and SK-OV-3 (ovarian cancer cell), all of which are purchased from China Center For Type Culture Collection; RKO (human colon adenocarcinoma cell), MGC 803 (human gastric cancer cell), MG63 (osteosarcoma), and U87 MG (malignant glioma cell), all of which are purchased from Fuxiang Bio-tech Co. Ltd., Shanghai, China; PANC-1 (pancreatic cancer), Huh? (human liver cancer cell), Becap37 (human breast cancer cell), and Hela (human cervical cancer cell), all of which are donated by Cancer Research Institute of Zhejiang University, China.
(§2) Reagents: the same as in Example 5.
(§3) Obtaining 4000 well-growing human solid tumor cells and inoculating them into wells of a 96-well cell culture plate. The culture medium is DMEM High Glucose cell culture medium containing 10% fetal bovine serum. The plate is placed in a carbon dioxide cell incubator (5% CO2) at 37° C. and incubated for 24 hours. After been added with tetrandrine derivatives of different concentration and mixing uniformly, the plate is placed in a carbon dioxide cell incubator (5% CO2) at 37° C. and incubated for 72 hours. Then the viable cell concentration is determined by the MTT method and the cell viability (%) after drug treatment is calculated. In this experiment, the cell viability of control group (not treated with any compound) is set as 100%.

[1] = system: Becap37 (human breast cancer cell); test: as above; format: cell-based; conditions: 72 h, MTT, Becap-37; for IC50 / IC90: Homo sapiens
Protocol: as §1, §2, §3

[2] = system: Huh7 (human liver cancer cell); test: as above; format: cell-based; conditions: 72 h, MTT, Huh-7; for IC50 / IC90: Homo sapiens
Protocol: as §1, §2, §3

[3] = system: MGC 803 (human gastric cancer cell); test: as above; format: cell-based; conditions: for IC50 / IC90: Homo sapiens
Protocol: as §1, §2, §3

[4] = system: RPMI8226 (multiple myeloma); test: Multiple myeloma cell growth inhibition, MTT, 72 h (Example 6); format: cell-based, human; conditions: for IC50 / IC90: Homo sapiens, RPMI-8226
Protocol: Multiple myeloma and lymphoma cell lines: RPMI8226 (multiple myeloma), purchased from Fuxiang Bio-tech Co. Ltd., Shanghai, China.
as §2
(§4) Obtaining 6000 well-growing leukemia cells and inoculating them into wells of a 96-well cell culture plate. The culture medium is a 1640 cell culture medium containing 10% fetal bovine serum. After adding the tetrandrine derivatives of different concentrations and mixing uniformly, placing the plate in a carbon dioxide cell incubator (5% CO2) at 37° C. and incubated for 72 hours. Then the viable cell concentration is determined by the MTT method.

[5] = system: PANC-1 (pancreatic cancer); test: Solid tumor cell growth inhibition, MTT, 72 h (Example 7); format: cell-based, human; conditions: 72 h, MTT, PANC-1; for IC50 / IC90: Homo sapiens
Protocol: as §1, §2, §3

[6] = system: CaES-17 (esophageal cancer cell); test: as above; format: cell-based, human; conditions: 72 h, MTT, CAES-17; for IC50 / IC90: Homo sapiens, CaEs17
Protocol: as §1, §2, §3

MG63 (osteosarcoma) = test: as above; format: cell-based, human; conditions: 72 h, MTT, MG-63; for IC50 / IC90: Homo sapiens
Protocol: as §1, §2, §3

[7] = system: Jurkat (acute lymphoblastic leukemia, ALL); test: Leukemia cell growth inhibition, MTT, 72 h (Example 5); format: cell-based, human; conditions: 72 h, MTT; for IC50 / IC90: Homo sapiens, Jurkat
Text: (§5) Leukemia cell lines: leukemia cell lines: K562/adr (drug-resistant, chronic myeloid leukemia, CML), NB4 (acute promyelocytic leukemia, AML), Kasumi-1 (acute myeloid leukemia M2 type, AML-M2), Jurkat (acute lymphoblastic leukemia, ALL), all of which are donated by Cancer Research Institute of Zhejiang University, China; and H9 (acute lymphoblastic leukemia, ALL), which is purchased from China Center for Type Culture Collection.
(§6) Reagents: The standard sample of tetrandrine (TTD) is purchased from Ci Yuan Biotechnology Co., Ltd., Shaanxi, China; and the 5-substituted tetrandrine derivatives of the present invention.
as §4, with “incubating” for “incubated”

[8] = system: NB4 (acute promyelocytic leukemia, AML); test: as above; format: cell-based, human; conditions: Homo sapiens; 72 h, MTT
Text: as §5, §6
as §4, with “incubating” for “incubated”

[9] = system: Kasumi-1 (acute myeloid leukemia M2 type, AML-M2); test: as above; format: cell-based, human; conditions: for IC50 / IC90: Homo sapiens, Kasumi 1
Text: as §5, §6
as §4, with “incubating” for “incubated”

[10] = system: H9 (acute lymphoblastic leukemia, ALL); test: as above; format: cell-based, human; conditions: 72 h, MTT; for IC50 / IC90: Homo sapiens
Text: as §5, §6
as §4, with “incubating” for “incubated”

[11] = system: K562/adr (drug-resistant, chronic myeloid leukemia, CML); test: as above; format: cell-based, human; conditions: for IC50 / IC90: Homo sapiens, K562/Adr
Text: as §5, §6
as §4, with “incubating” for “incubated”

[12] = system: RKO (human colon adenocarcinoma cell); test: Solid tumor cell growth inhibition, MTT, 72 h (Example 7); format: cell-based; conditions: Homo sapiens; 72 h, MTT, RKO
Protocol: as §1, §2, §3

PC-3 (prostate cancer) = test: as above; format: cell-based, human; conditions: 72 h, MTT, PC-3
Protocol: as §1, §2, §3

COc1ccc2cc1Oc1ccc(cc1)C[C@H]1c3cc(c(OC)cc3CCN1C)Oc1c(OC)c(OC)c(CN3CC=CC3)c3c1[C@H](C2)N(C)CC3 [BS-TE-329]
IC50 (A549 (human lung cancer)): 2.36 µg/mL (≈ 3.35 µM) | IC90 (A549 (human lung cancer)): 4.77 µg/mL (≈ 6.78 µM) | IC50 [1]: 1.62 µg/mL (≈ 2.3 µM) | IC90 [1]: 2.48 µg/mL (≈ 3.52 µM) | IC50 [2]: 8.16 µg/mL (≈ 11.6 µM) | IC90 [2]: 15.9 µg/mL (≈ 22.5 µM) | IC50 [3]: 1.26 µg/mL (≈ 1.79 µM) | IC90 [3]: 1.82 µg/mL (≈ 2.59 µM) | IC50 ([4]; 72 h, MTT, RPMI8226): 0.004 µg/mL (≈ 0.00568 µM) | IC90 ([4]; 72 h, MTT, RPMI8226): 0.29 µg/mL (≈ 0.412 µM) | anti-RPMI8226 activity increase over tetrandrine ([4]; compared with tetrandrine): ~90 fold | IC50 [5]: > 10 µg/mL | IC90 [5]: > 10 µg/mL | IC50 [6]: 7.2 µg/mL (≈ 10.2 µM) | IC90 [6]: 26.5 µg/mL (≈ 37.6 µM) | IC50 (MG63 (osteosarcoma)): 6.87 µg/mL (≈ 9.76 µM) | IC90 (MG63 (osteosarcoma)): 35.6 µg/mL (≈ 50.6 µM) | IC50 [7]: 0.91 µg/mL (≈ 1.29 µM) | IC90 [7]: 3.31 µg/mL (≈ 4.7 µM) | IC50 [8]: 2.05 µg/mL (≈ 2.91 µM) | IC90 [8]: 3.9 µg/mL (≈ 5.54 µM) | IC50 [9]: 0.5 µg/mL (≈ 0.71 µM) | IC90 [9]: 3.4 µg/mL (≈ 4.83 µM) | IC50 [10]: 1.19 µg/mL (≈ 1.69 µM) | IC90 [10]: 2 µg/mL (≈ 2.84 µM) | IC50 ([11]; 72 h, MTT): 0.1 µg/mL (≈ 0.142 µM) | IC90 ([11]; 72 h, MTT): 1.33 µg/mL (≈ 1.89 µM) | anti-K562/adr activity increase over tetrandrine ([11]; compared with tetrandrine): ~4 fold

COc1ccc2cc1Oc1ccc(cc1)C[C@H]1c3cc(c(OC)cc3CCN1C)Oc1c(OC)c(OC)c(Cn3cccn3)c3c1[C@H](C2)N(C)CC3 [BS-TE-330]
IC50 (A549 (human lung cancer)): 5.44 µg/mL (≈ 7.74 µM) | IC90 (A549 (human lung cancer)): 16 µg/mL (≈ 22.7 µM) | IC50 [1]: 6 µg/mL (≈ 8.54 µM) | IC90 [1]: 12 µg/mL (≈ 17.1 µM) | IC50 [12]: 2.5 µg/mL (≈ 3.56 µM) | IC90 [12]: 4.64 µg/mL (≈ 6.6 µM) | IC50 [2]: 2.96 µg/mL (≈ 4.21 µM) | IC90 [2]: 4.9 µg/mL (≈ 6.97 µM) | IC50 [3]: 1.61 µg/mL (≈ 2.29 µM) | IC90 [3]: 6.48 µg/mL (≈ 9.22 µM) | IC50 ([4]; 72 h, MTT, RPMI8226): 0.18 µg/mL (≈ 0.256 µM) | IC90 ([4]; 72 h, MTT, RPMI8226): 1.22 µg/mL (≈ 1.74 µM) | IC50 (PC-3 (prostate cancer); Homo sapiens): 3.68 µg/mL (≈ 5.24 µM) | IC90 (PC-3 (prostate cancer); Homo sapiens): 7.59 µg/mL (≈ 10.8 µM) | IC50 [5]: 6.17 µg/mL (≈ 8.78 µM) | IC90 [5]: 9.8 µg/mL (≈ 13.9 µM) | IC50 [6]: 2.4 µg/mL (≈ 3.41 µM) | IC90 [6]: 7.94 µg/mL (≈ 11.3 µM) | IC50 (MG63 (osteosarcoma)): 1.96 µg/mL (≈ 2.79 µM) | IC90 (MG63 (osteosarcoma)): 4.38 µg/mL (≈ 6.23 µM) | IC50 [7]: 2.37 µg/mL (≈ 3.37 µM) | IC90 [7]: 5.51 µg/mL (≈ 7.84 µM) | IC50 [9]: 1.45 µg/mL (≈ 2.06 µM) | IC90 [9]: 6.95 µg/mL (≈ 9.89 µM) | IC50 [10]: 2.03 µg/mL (≈ 2.89 µM) | IC90 [10]: 4.03 µg/mL (≈ 5.73 µM) | IC50 ([11]; 72 h, MTT): 0.56 µg/mL (≈ 0.797 µM) | IC90 ([11]; 72 h, MTT): 2.83 µg/mL (≈ 4.03 µM)

COc1ccc2cc1Oc1ccc(cc1)C[C@H]1c3cc(c(OC)cc3CCN1C)Oc1c(OC)c(OC)c(CO)c3c1[C@H](C2)N(C)CC3 [BS-TE-213]
A549 IC50 (A549 (human lung cancer)): >16 µg/mL | A549 IC90 (A549 (human lung cancer)): >16 µg/mL | Becap-37 IC50 [1]: 9.95 µg/mL | Becap-37 IC90 [1]: >10 µg/mL | Huh-7 IC50 [2]: 8.54 µg/mL | Huh-7 IC90 [2]: 15.09 µg/mL | MGC-803 IC50 [3]: 18.95 µg/mL | MGC-803 IC90 [3]: 64.43 µg/mL | RPMI8226 IC50 ([4]; 72 h, MTT, RPMI8226): 1.95 µg/mL | RPMI8226 IC90 ([4]; 72 h, MTT, RPMI8226): 8 µg/mL | PC-3 IC50 (PC-3 (prostate cancer)): >10 µg/mL | PC-3 IC90 (PC-3 (prostate cancer)): >10 µg/mL | PANC-1 IC50 [5]: >10 µg/mL | PANC-1 IC90 [5]: >10 µg/mL | CAES-17 IC50 [6]: 9.89 µg/mL | CAES-17 IC90 [6]: 30.16 µg/mL | MG-63 IC50 (MG63 (osteosarcoma)): 9.93 µg/mL | MG-63 IC90 (MG63 (osteosarcoma)): 26.11 µg/mL | Jurkat IC50 [7]: >16 µg/mL | Jurkat IC90 [7]: >16 µg/mL | Kasumi-1 IC50 [9]: 7.74 µg/mL | Kasumi-1 IC90 [9]: >16 µg/mL | H9 IC50 [10]: >16 µg/mL | H9 IC90 [10]: >16 µg/mL | K562/ADR IC50 ([11]; 72 h, MTT): 3.70 µg/mL | K562/ADR IC90 ([11]; 72 h, MTT): 11.11 µg/mL
